Reference: ChEMBL document CHEMBL1122789, “Synthesis and biological activity of structural analogues of the anticancer benzophenanthridine alkaloid nitidine chloride” (1984)

What was measured:
B16 [1] = test: Evaluated for anticancer activity in survival tumor system B16 melanocarcinoma at a dose of 12.5 mg/kg; Number of Tested survived/number of control survived (9/10); format: functional, Mus musculus
P388 [2] = test: Evaluated for anticancer activity in survival tumor system P388 lymphocytic leukemia at a dose of 50 mg/kg;Number of Tested survived/number of control survived (5/5); settings: Mus musculus
P388 [3] = test: Evaluated for anticancer activity in survival tumor system P388 lymphocytic leukemia at dose 100 mg/kg; format: functional, Mus musculus
MX1 [4] = test: Evaluated for anticancer activity in tumor inhibition system MX-1 breast xenograph at dose 150 mg/kg; format: functional, Homo sapiens
B16 [5] = test: Evaluated for anticancer activity in survival tumor system B16 melanocarcinoma at dose 6.25 mg/kg; format: functional, Mus musculus
[6] = Evaluated for anticancer activity in tumor inhibition system CD8F1 mammary tumor at dose 125 mg/kg; format: functional, Mus musculus
P388 [7] = test: Evaluated for anticancer activity in survival tumor system P388 lymphocytic leukemia at dose 50 mg/kg; format: functional, Mus musculus
B16 [8] = test: Evaluated for anticancer activity in survival tumor system B16 melanocarcinoma at a dose of 25 mg/kg, value was reported as weight difference; format: functional, Mus musculus
[9] = tested on: Lewis lung carcinoma cell line; test: Evaluated for anticancer activity in survival tumor system Lewis lung (LL) carcinoma at a dose of 100 mg/kg, value was reported as weight difference; format: functional, Mus musculus
[10] = Evaluated for anticancer activity in tumor inhibition system colon 38 tumor at dose 400 mg/kg; format: functional, Mus musculus
B16 [11] = test: Evaluated for anticancer activity in survival tumor system B16 melanocarcinoma at a dose of 6.25 mg/kg, value was reported as weight difference; format: functional, Mus musculus
P388 [12] = test: Evaluated for anticancer activity in survival tumor system P388 lymphocytic leukemia at a dose of 50 mg/kg, value was reported as weight difference; format: functional, Mus musculus
L1210 [13] = test: Evaluated for anticancer activity in survival tumor system L1210 lymphoid leukemia at a dose of 25 mg/kg; Number of Tested survived/number of control survived (6/6); format: functional, Mus musculus
[14] = Evaluated for anticancer activity in tumor inhibition system colon 38 tumors at a dose of 200 mg/kg; Number of Tested survived/number of control survived (10/10); format: functional, Mus musculus
L1210 [15] = test: Evaluated for anticancer activity in survival tumor system L1210 lymphoid leukemia at a dose of 3.125 mg/kg; Number of Tested survived/number of control survived (6/6); format: functional, Mus musculus
MX1 [16] = test: Evaluated for anticancer activity in tumor inhibition system MX-1 breast xenograph at a dose of 150mg/kg, value was reported as weight difference; format: functional, Homo sapiens
[17] = Evaluated for anticancer activity in tumor inhibition system CD8F1 mammary tumors at a dose of mg/kg;Number of Tested survived/number of control survived (10/10); format: functional, Mus musculus
[18] = tested on: Lewis lung carcinoma cell line; test: Evaluated for anticancer activity in survival tumor system Lewis lung (LL) carcinoma at a dose of 200 mg/kg, value was reported as weight difference; format: functional, Mus musculus
[19] = tested on: Lewis lung carcinoma cell line; test: Evaluated for anticancer activity in survival tumor system Lewis lung (LL) carcinoma at a dose of 50 mg/kg;Number of Tested survived/number of control survived (10/10); format: functional, Mus musculus
L1210 [20] = test: Evaluated for anticancer activity in survival tumor system L1210 lymphoid leukemia at a dose of 100 mg/kg, value was reported as weight difference; format: functional, Mus musculus
[21] = Evaluated for anticancer activity in tumor inhibition system colon 38 tumors at a dose of 100 mg/kg; Number of Tested survived/number of control survived (10/10); format: functional, Mus musculus
L1210 [22] = test: Evaluated for anticancer activity in survival tumor system L1210 lymphoid leukemia at a dose of 6.25 mg/kg; Number of Tested survived/number of control survived (6/6); format: functional, Mus musculus
MX1 [23] = test: Evaluated for anticancer activity in tumor inhibition system MX-1 breast xenograph at dose 75 mg/kg; format: functional, Homo sapiens
L1210 [24] = test: Evaluated for anticancer activity in survival tumor system L1210 lymphoid leukemia at a dose of 6.25 mg/kg, value was reported as weight difference; format: functional, Mus musculus
[25] = Evaluated for anticancer activity in tumor inhibition system colon 38 tumors at a dose of 800 mg/kg; Number of Tested survived/number of control survived (0/10); format: functional, Mus musculus
[26] = tested on: Lewis lung carcinoma cell line; test: Evaluated for anticancer activity in survival tumor system tumor system Lewis lung (LL) carcinoma at a dose of 200 mg/kg; Number of Tested survived/number of control survived (2/10); format: functional, Mus musculus
[27] = tested on: Lewis lung carcinoma cell line; test: Evaluated for anticancer activity in survival tumor system Lewis lung (LL) carcinoma at a dose of 50 mg/kg, value was reported as weight difference; format: functional, Mus musculus
B16 [28] = test: Evaluated for anticancer activity in survival tumor system B16 melanocarcinoma at a dose of 200 mg/kg, value was reported as weight difference; format: functional, Mus musculus
[29] = tested on: Lewis lung carcinoma cell line; test: Evaluated for anticancer activity in survival tumor system Lewis lung (LL) carcinoma at a dose of 25 mg/kg, value was reported as weight difference; format: functional, Mus musculus
[30] = Evaluated for anticancer activity in tumor inhibition system CD8F mammary tumor at a dose of 62 mg/kg, value was reported as weight difference; format: functional, Mus musculus
B16 [31] = test: Evaluated for anticancer activity in survival tumor system B16 melanocarcinoma at a dose of 100 mg/kg, value was reported as weight difference; format: functional, Mus musculus
[32] = tested on: Lewis lung carcinoma cell line; test: Evaluated for anticancer activity in survival tumor system tumor system Lewis lung (LL) carcinoma at a dose of 100 mg/kg; Number of Tested survived/number of control survived (10/10); format: functional, Mus musculus
[33] = tested on: Lewis lung carcinoma cell line; test: Evaluated for anticancer activity in survival tumor system Lewis lung (LL) carcinoma at a dose of 12.5 mg/kg, value was reported as weight difference; format: functional, Mus musculus
P388 [34] = test: Evaluated for anticancer activity in survival tumor system P388 lymphocytic leukemia at a dose of 25 mg/kg, value was reported as weight difference; format: functional, Mus musculus
[35] = Evaluated for anticancer activity in tumor inhibition system CD8F1 mammary tumors at a dose of 500 mg/kg; Number of Tested survived/number of control survived (0/10); format: functional, Mus musculus
[36] = Evaluated for anticancer activity in tumor inhibition system colon 38 tumors at a dose of 400 mg/kg; Number of Tested survived/number of control survived (10/10); format: functional, Mus musculus
[37] = Evaluated for anticancer activity in tumor inhibition system CD8F1 mammary tumors at a dose of 250 mg/kg; number of Tested survived/number of control survived; format: functional, Mus musculus
[38] = Evaluated for anticancer activity in tumor inhibition system colon 38 tumor at dose 100 mg/kg; format: functional, Mus musculus
B16 [39] = test: Evaluated for anticancer activity in survival tumor system B16 melanocarcinoma at dose 12.5 mg/kg; format: functional, Mus musculus
[40] = Evaluated for anticancer activity in tumor inhibition system colon 38 tumor at dose 50 mg/kg; format: functional, Mus musculus
MX1 [41] = test: Evaluated for anticancer activity in tumor inhibition system MX-1 breast xenograph at a dose of 75 mg/kg, value was reported as weight difference; format: functional, Homo sapiens
L1210 [42] = test: Evaluated for anticancer activity in survival tumor system L1210 lymphoid leukemia at dose 25 mg/kg; settings: Mus musculus
[43] = Evaluated for anticancer activity in tumor inhibition system CD8F mammary tumor at a dose of 125 mg/kg, value was reported as weight difference; format: functional, Mus musculus

With `COc1cc2c[n+](C)c3c(c2cc1OC)Cc1cc2c(cc1-3)OCO2.[Cl-]` the Survival (B16 [1]) was 9, the Survival (P388 [2]) was 5 and the T/C (P388 [3]) was 168%. For the same molecule, the T/C (MX1 [4]) was 35%, the T/C (B16 [5]) was 148% and the T/C [6] was 105%. The T/C (P388 [7]) was 149%, the Weight change (B16 [8]) was -2.5 and the Weight change [9] was -3.8. The T/C [10] was 85%, the Weight change (B16 [11]) was -0.5 and the Weight change (P388 [12]) was -5. It also gave a Survival (L1210 [13]) of 6, a Survival [14] of 10 and a Survival (L1210 [15]) of 6. It also gave a Weight change (MX1 [16]) of -6, a Survival [17] of 10 and a Weight change [18] of -4.9. For the same molecule, the Survival [19] was 10, the Weight change (L1210 [20]) was -5.8 and the Survival [21] was 10. It also gave a Survival (L1210 [22]) of 6, a T/C (MX1 [23]) of 102% and a Weight change (L1210 [24]) of -3.2. For the same molecule, the Survival [25] was 0, the Survival [26] was 2 and the Weight change [27] was -2.6. For the same molecule, the Weight change (B16 [28]) was -4.2, the Weight change [29] was -2.4 and the Weight change [30] was -1. For the same molecule, the Weight change (B16 [31]) was -4.6, the Survival [32] was 10 and the Weight change [33] was -0.9. For the same molecule, the Weight change (P388 [34]) was -3.6, the Survival [35] was 0 and the Survival [36] was 10. The Survival [37] was 2, the T/C [38] was 107% and the T/C (B16 [39]) was 131%. The T/C [40] was 94%, the Weight change (MX1 [41]) was -4.5 and the T/C (L1210 [42]) was 165%. The Weight change [43] was -3.2.
